Values of other authors, collected in patent US20240409577A1, “FORMATION OF AMIDINES AND INTRAMOLECULAR REACTION THEREOF” (priority 2023, published 2024).

Details: acid used for the imidazolone transformation

For OC(C(F)(F)F)C(F)(F)F [HFIP, hexafluoroisopropanol], the pKa is given as 8.3.
